Measured values reported in US11478471B2, “Methods and compositions for treating diabetes, metabolic syndrome and other conditions” (priority 2005, dated 2022).
“Also recorded” adds a separate entry of the source.

Key:
[1] = Toxicokinetics of racemic ketoconazole in another 28-day dog study (b); conditions: dogs; for Cmax / AUC(0-t) / concentration at 0 h / concentration at 1 h / concentration at 2 h / concentration at 4 h / concentration at 8 h / concentration at 12 h / Tmax: beagle, dog, plasma, po; for AUC(0-t): AUC(0-12), footnote: AUC data is for 0-24 h; for concentration at 0 h / concentration at 1 h / concentration at 2 h / concentration at 4 h / concentration at 8 h / concentration at 12 h: Drug concentration in plasma; for Tmax: Tmax Range
Text: Two groups of three male and three female dogs per group were studied.
Toxicokinetic samples were collected on Day 1 and during Weeks 2 and 4. […] For the following Table: *Days of treatment.

rat hepatocytes = conditions: cultured rat hepatocytes, four hours exposure; cited from earlier work
[2] = female, 10 mg/kg, study b, powder, 10 mg/kg oral, day 1, F
[3] = female, 10 mg/kg, study b, powder, 10 mg/kg oral, day 28, F
[4] = female, 40 mg/kg, study b, powder, 40 mg/kg oral, day 1, F
[5] = female, 40 mg/kg, study b, powder, dose and days not printed in the row (40 mg/kg, day 28), F
[6] = female, 40 mg/kg, study b, powder, 40 mg/kg oral, day 28, F
[7] = male, 10 mg/kg, study b, powder, 10 mg/kg oral, day 1, M
[8] = male, 10 mg/kg, study b, powder, 10 mg/kg oral, day 28, M
[9] = male, 40 mg/kg, study b, powder, 40 mg/kg oral, day 1, M
[10] = male, 40 mg/kg, study b, powder, dose and days not printed in the row (40 mg/kg, day 28), M
[11] = male, 40 mg/kg, study b, powder, 40 mg/kg oral, day 28, M

For `CC(=O)N1CCN(c2ccc(OCC3COC(Cn4ccnc4)(c4ccc(Cl)cc4Cl)O3)cc2)CC1` (racemic) [Racemic ketoconazole, 1-acetyl-4-[4-[[2-(2,4-dichlorophenyl)-2-[(1H-imidazol-1-yl)-methyl]-1,3-dioxolan-4-yl]methoxy]phenyl]piperazine], the Cmax ([1]; both, 10 mg/kg, 10 mg/kg, day 28) was 7.52 to 9.2 µg/mL, the Cmax ([1]; both, 40 mg/kg, 40 mg/kg, day 28) was 42.8 to 46.8 µg/mL and the “change of exposure (AUC, Cmax) with repeat dosing, day 28 vs day 1” value ([1]; daily oral dosing for 28 days) was “AUC determined after a single dose was significantly reduced in comparison to the AUC determined after 28 daily doses; also recorded: significant increase between day 1 and day 28”. The AUC(0-t) [1, 2] was 6.73 µg·h/mL, the AUC(0-t) [1, 3] was 33.1 µg·h/mL and the Cmax [1, 2] was 1.58 µg/mL. For the same compound, the Cmax [1, 3] was 7.52 µg/mL, the concentration at 0 h [1, 2] was < 0.25 µg/mL and the concentration at 1 h [1, 2] was 1.3 µg/mL. For the same compound, the concentration at 2 h [1, 2] was 1.23 µg/mL, the concentration at 4 h [1, 2] was 0.59 µg/mL and the concentration at 8 h [1, 2] was < 0.25 µg/mL. The concentration at 12 h [1, 2] was < 0.25 µg/mL, the concentration at 0 h [1, 3] was < 0.25 µg/mL and the concentration at 1 h [1, 3] was 7.28 µg/mL. The concentration at 2 h [1, 3] was 7.21 µg/mL, the concentration at 4 h [1, 3] was 4.39 µg/mL and the concentration at 8 h [1, 3] was 0.85 µg/mL. For the same compound, the concentration at 12 h [1, 3] was < 0.25 µg/mL, the Tmax [1, 2] was 1 to 8 h and the Tmax [1, 3] was 1 to 2 h. For the same compound, the AUC(0-t) [1, 4] was 42.9 µg·h/mL, the AUC(0-t) [1, 5] was 639 µg·h/mL and the Cmax [1, 4] was 6.23 µg/mL. For the same compound, the Cmax [1, 5] was 42.8 µg/mL, the concentration at 0 h [1, 4] was < 0.25 µg/mL and the concentration at 1 h [1, 4] was 5.65 µg/mL. The concentration at 2 h [1, 4] was 5.76 µg/mL, the concentration at 4 h [1, 4] was 3.3 µg/mL and the concentration at 8 h [1, 4] was 1.84 µg/mL. The concentration at 12 h [1, 4] was 1.55 µg/mL, the concentration at 0 h [1, 6] was 12.8 µg/mL and the concentration at 1 h [1, 6] was 12.3 µg/mL. It also gave a concentration at 2 h [1, 6] of 31.6 µg/mL, a concentration at 4 h [1, 6] of 38.6 µg/mL and a concentration at 8 h [1, 6] of 40.5 µg/mL. It also gave a concentration at 12 h [1, 6] of 29.9 µg/mL, a Tmax [1, 4] of 2 to 12 h and a Tmax [1, 5] of 4 to 8 h. For the same compound, the AUC(0-t) [1, 7] was 9.01 µg·h/mL, the AUC(0-t) [1, 8] was 44.1 µg·h/mL and the Cmax [1, 7] was 1.43 µg/mL. For the same compound, the Cmax [1, 8] was 9.2 µg/mL, the concentration at 0 h [1, 7] was < 0.25 µg/mL and the concentration at 1 h [1, 7] was 0.38 µg/mL. The concentration at 2 h [1, 7] was 0.62 µg/mL, the concentration at 4 h [1, 7] was 1.18 µg/mL and the concentration at 8 h [1, 7] was 0.33 µg/mL. For the same compound, the concentration at 12 h [1, 7] was < 0.25 µg/mL, the concentration at 0 h [1, 8] was < 0.25 µg/mL and the concentration at 1 h [1, 8] was 7.53 µg/mL. The concentration at 2 h [1, 8] was 8.63 µg/mL, the concentration at 4 h [1, 8] was 6.2 µg/mL and the concentration at 8 h [1, 8] was 1.44 µg/mL. It also gave a concentration at 12 h [1, 8] of 0.43 µg/mL, a Tmax [1, 7] of 2 to 4 h and a Tmax [1, 8] of 1 to 2 h. For the same compound, the AUC(0-t) [1, 9] was 180 µg·h/mL, the AUC(0-t) [1, 10] was 542 µg·h/mL and the Cmax [1, 9] was 23.3 µg/mL. The Cmax [1, 10] was 46.8 µg/mL, the concentration at 0 h [1, 9] was < 0.25 µg/mL and the concentration at 1 h [1, 9] was 10.3 µg/mL. The concentration at 2 h [1, 9] was 14.6 µg/mL, the concentration at 4 h [1, 9] was 23.1 µg/mL and the concentration at 8 h [1, 9] was 10.1 µg/mL. It also gave a concentration at 12 h [1, 9] of 6.7 µg/mL, a concentration at 0 h [1, 11] of 3.97 µg/mL and a concentration at 1 h [1, 11] of 11.9 µg/mL. It also gave a concentration at 2 h [1, 11] of 24.6 µg/mL, a concentration at 4 h [1, 11] of 32.7 µg/mL and a concentration at 8 h [1, 11] of 46.8 µg/mL. It also gave a concentration at 12 h [1, 11] of 28.3 µg/mL, a Tmax [1, 9] of 2 to 4 h and a Tmax [1, 10] of 8 h. The “concentrations with no detectable effect on LDH release” value (rat hepatocytes) was “below 75 microM”.
